Experimental data reported in PMC5357154 (Cell chemical biology, 2017).

Tests used:
[1] = test system: caspases in HeLa and THP-1 cells; assay: Caspase inhibition across cell culture assays; format: cell-based, human; conditions: NSAIDs up to 500 μM
caspase-3 [2] = molecular target: T1, caspase-3 (Homo sapiens, UniProt P42574); assay: Caspase catalytic activity IC50 determination, caspase-3; format: biochemical; conditions: 200 nM enzyme, 3.3 μM DEVD substrate, tested 26.1 nM to 66 μM
T1 sequence (P42574 29-175 limits assumed): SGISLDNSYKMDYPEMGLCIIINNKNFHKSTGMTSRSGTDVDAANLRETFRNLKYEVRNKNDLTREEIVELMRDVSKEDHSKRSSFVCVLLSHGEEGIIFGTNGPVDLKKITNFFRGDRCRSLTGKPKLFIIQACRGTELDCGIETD
T1 sequence (P42574 176-277 limits assumed): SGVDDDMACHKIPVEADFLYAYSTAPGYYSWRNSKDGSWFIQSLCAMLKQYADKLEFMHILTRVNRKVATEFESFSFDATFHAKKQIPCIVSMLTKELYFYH

caspase-9 = molecular target: T2, caspase-9 (Homo sapiens, UniProt P55211); assay: Caspase catalytic activity IC50 determination, caspase-9; format: biochemical; conditions: 200 nM enzyme, 6.5 μM LEHD substrate, tested 26.1 nM to 66 μM
T2 sequence (P55211 1-315 limits assumed): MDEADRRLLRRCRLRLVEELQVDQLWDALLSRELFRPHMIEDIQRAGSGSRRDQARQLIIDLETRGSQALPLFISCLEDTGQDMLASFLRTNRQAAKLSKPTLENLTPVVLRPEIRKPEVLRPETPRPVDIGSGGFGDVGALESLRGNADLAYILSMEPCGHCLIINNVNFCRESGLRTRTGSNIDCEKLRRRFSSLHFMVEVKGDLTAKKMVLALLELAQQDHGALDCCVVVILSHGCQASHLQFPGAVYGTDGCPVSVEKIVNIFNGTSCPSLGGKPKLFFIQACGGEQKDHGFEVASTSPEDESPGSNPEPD
T2 sequence (P55211 331-416 limits assumed): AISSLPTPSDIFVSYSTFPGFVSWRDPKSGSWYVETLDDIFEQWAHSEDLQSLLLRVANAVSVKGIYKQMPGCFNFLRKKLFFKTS

caspase-4 = molecular target: T3, caspase-4 (Homo sapiens, UniProt P49662); assay: Caspase catalytic activity IC50 determination, caspase-4; format: biochemical; conditions: 1 nM enzyme, 10 μM LEHD substrate, tested 26.1 nM to 66 μM
T3 sequence (P49662 81-270 limits assumed): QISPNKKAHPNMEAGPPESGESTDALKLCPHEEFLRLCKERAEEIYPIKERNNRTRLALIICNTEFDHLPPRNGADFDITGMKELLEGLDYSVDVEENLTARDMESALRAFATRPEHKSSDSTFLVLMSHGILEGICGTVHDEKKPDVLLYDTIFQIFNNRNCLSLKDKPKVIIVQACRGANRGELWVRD
T3 sequence (P49662 290-377 limits assumed): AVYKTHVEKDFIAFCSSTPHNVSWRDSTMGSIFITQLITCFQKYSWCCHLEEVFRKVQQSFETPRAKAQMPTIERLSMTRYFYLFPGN

caspase-5 = molecular target: T4, caspase-5 (Homo sapiens, UniProt P51878); assay: Caspase catalytic activity IC50 determination, caspase-5; format: biochemical; conditions: 20 nM enzyme, 10 μM LEHD substrate, tested 26.1 nM to 66 μM
T4 sequence (P51878 137-327 limits assumed): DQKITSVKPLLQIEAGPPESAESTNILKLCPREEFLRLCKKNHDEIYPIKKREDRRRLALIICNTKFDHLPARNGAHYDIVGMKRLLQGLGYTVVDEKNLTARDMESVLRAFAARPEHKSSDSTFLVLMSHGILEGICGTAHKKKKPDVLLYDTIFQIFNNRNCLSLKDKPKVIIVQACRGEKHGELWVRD
T4 sequence (P51878 347-434 limits assumed): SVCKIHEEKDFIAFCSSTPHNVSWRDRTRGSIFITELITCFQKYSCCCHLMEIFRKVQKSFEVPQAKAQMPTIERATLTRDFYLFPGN

caspase-1 = molecular target: T5, caspase-1 (Homo sapiens, UniProt P29466); assay: Caspase catalytic activity IC50 determination, caspase-1; format: biochemical; conditions: 2.5 nM enzyme, 6.5 μM WEHD substrate, tested 26.1 nM to 66 μM
T5 sequence (P29466 120-297 limits assumed): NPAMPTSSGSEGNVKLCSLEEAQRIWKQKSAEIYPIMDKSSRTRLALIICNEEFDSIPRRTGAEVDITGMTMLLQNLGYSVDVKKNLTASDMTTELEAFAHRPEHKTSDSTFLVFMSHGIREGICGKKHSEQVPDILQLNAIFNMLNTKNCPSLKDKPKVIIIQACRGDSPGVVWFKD
T5 sequence (P29466 317-404 limits assumed): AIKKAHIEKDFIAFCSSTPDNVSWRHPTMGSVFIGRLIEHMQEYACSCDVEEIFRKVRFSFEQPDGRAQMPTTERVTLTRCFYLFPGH

caspase-3 [3] = molecular target: T1, caspase-3; assay: Caspase-3 tryptophan fluorescence quenching; format: binding

| SMILES | caspase inhibitory capability, rank order across cellular assays [1] | IC50 (caspase-3 [2]) | IC50 (caspase-9) | IC50 (caspase-4) | IC50 (caspase-5) | IC50 (caspase-1) | Kd (caspase-3 [3]) [µM] |
| --- | --- | --- | --- | --- | --- | --- | --- |
| CC(=O)Oc1ccccc1C(=O)O [Aspirin] | ineffective | No activity | No activity | No activity | No activity | No activity | 1290 ± 10 |
| O=C(O)CCC(=O)c1ccc(-c2ccccc2)cc1 [Fenbufen] | substantial inhibitory capabilities | – | – | – | – | – | – |
| CC(C)Cc1ccc(C(C)C(=O)O)cc1 (stereo not shown) [Ibuprofen] | weak inhibitors | – | – | – | – | No activity | – |
| CC(C(=O)O)c1ccc(N2Cc3ccccc3C2=O)cc1 (stereo not shown) [Indoprofen] | substantial inhibitory capabilities | – | – | – | – | – | 30 ± 2 |
| COc1ccc2cc([C@H](C)C(=O)O)ccc2c1 [Naproxen] | weak inhibitors | – | – | – | – | – | – |
